According to patent EP3478687B1 (Daewoong Pharmaceutical Co., Ltd., priority 2016, dated 2018):

What was measured:
[1] = biological target: T1, Recombinant purified human JAK3 (Homo sapiens, UniProt P52333); test: JAK3 kinase inhibitory activity, ADP-Glo kinase assay (Promega V9441); format: biochemical; conditions: ATP 5 uM, 4 ng JAK3 per reaction, 1 hour 30 °C, chemiluminescence
T1 construct: purchased Promega V9441
T1 sequence (P52333 1-1124): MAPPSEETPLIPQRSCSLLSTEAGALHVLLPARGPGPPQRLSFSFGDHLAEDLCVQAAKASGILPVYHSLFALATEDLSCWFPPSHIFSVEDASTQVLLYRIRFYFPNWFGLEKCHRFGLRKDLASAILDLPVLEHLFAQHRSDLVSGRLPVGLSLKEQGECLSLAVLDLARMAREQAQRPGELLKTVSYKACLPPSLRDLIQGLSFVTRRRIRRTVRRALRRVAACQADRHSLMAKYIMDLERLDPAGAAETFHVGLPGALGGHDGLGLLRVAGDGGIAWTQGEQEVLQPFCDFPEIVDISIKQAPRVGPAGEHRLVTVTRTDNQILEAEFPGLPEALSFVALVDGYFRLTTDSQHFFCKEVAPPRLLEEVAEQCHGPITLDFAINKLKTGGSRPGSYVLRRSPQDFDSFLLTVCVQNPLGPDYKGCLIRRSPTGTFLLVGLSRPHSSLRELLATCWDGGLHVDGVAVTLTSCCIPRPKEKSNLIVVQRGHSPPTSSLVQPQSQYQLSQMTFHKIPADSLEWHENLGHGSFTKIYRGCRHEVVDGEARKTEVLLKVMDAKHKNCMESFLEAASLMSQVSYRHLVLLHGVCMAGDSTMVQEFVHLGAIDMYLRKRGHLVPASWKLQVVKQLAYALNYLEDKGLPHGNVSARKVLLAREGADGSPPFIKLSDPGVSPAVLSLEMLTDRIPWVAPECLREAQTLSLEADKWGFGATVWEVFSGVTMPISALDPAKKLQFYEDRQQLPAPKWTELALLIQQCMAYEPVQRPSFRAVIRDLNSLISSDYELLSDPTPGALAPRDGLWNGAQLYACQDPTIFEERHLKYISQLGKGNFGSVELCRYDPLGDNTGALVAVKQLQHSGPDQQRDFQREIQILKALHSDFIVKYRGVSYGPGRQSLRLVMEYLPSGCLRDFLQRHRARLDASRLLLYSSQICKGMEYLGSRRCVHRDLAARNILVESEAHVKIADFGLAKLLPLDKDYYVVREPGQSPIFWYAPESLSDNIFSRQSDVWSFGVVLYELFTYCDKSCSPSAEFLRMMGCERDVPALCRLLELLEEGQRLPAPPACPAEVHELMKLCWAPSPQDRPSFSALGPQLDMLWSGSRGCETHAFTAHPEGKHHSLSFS
Method: (§1) JAK3 and BTK kinase inhibitory activities were measured for the compounds prepared in the above Examples through in vitro analysis on the ADP Glow (Glo) platform.
(§2) Specifically, the inhibitory activities of JAK3 and BTK kinase were measured using a JAK3 kinase assay kit (Promega, V9441) and a BTK kinase assay kit (Promega, V9071) which were purchased from Promega. Recombinant purified human JAK3 and BTK were diluted with 1 x kinase reaction buffer (JAK3: 40 mM Tris-Cl, pH 7.5, 20 mM MgCh, 0.1 mg/mL BSA and 50 uM DTT / BTK: 40 mM Tris-Cl, pH 7.5, 20 mM MgCl2, 0.1 mg/mL BSA, 2 mM MnCl2 and 50 uM DTT) and added to a 96 well plate (JAK3: final concentration of 4 ng per reaction/BTK: final concentration of 8 ng per reaction). The compounds were treated so as to be finally a 1% DMSO aqueous solution, and a substrate cocktail containing ATP (JAK3: final concentration of 5 uM / BTK: final concentration of 10 uM) and 0.2 µg/µL of Poly(Glu4, Tyr1) peptide (JAK3 and BTK final concentration) in the total 25 µL reactants was added to a 96-well plate to initiate enzymatic reaction. After incubation (30 °C) for 1 hour, equivalent volume (25 µL per reaction) of ADP Glo was added and incubated (30 °C) for 40 minutes at room temperature. Then, a kinase detection reagent (50 µL per reaction) was added and incubated (30 °C) for 30 minutes at room temperature. The kinase activity was measured by chemiluminescence according to the instructions of ADP Glo kinase assay kit, and the inhibitory activity of the compounds according to the present invention was calculated. For the analysis of the results of each compound, Microsoft Excel was used, and IC50 values were calculated by SigmaPlot software.

[2] = biological target: T2, Recombinant purified human BTK (Homo sapiens, UniProt Q06187); test: BTK kinase inhibitory activity, ADP-Glo kinase assay (Promega V9071); format: biochemical; conditions: ATP 10 uM, 8 ng BTK per reaction, 1 hour 30 °C, chemiluminescence
T2 construct: purchased Promega V9071
T2 sequence (Q06187 whole entry): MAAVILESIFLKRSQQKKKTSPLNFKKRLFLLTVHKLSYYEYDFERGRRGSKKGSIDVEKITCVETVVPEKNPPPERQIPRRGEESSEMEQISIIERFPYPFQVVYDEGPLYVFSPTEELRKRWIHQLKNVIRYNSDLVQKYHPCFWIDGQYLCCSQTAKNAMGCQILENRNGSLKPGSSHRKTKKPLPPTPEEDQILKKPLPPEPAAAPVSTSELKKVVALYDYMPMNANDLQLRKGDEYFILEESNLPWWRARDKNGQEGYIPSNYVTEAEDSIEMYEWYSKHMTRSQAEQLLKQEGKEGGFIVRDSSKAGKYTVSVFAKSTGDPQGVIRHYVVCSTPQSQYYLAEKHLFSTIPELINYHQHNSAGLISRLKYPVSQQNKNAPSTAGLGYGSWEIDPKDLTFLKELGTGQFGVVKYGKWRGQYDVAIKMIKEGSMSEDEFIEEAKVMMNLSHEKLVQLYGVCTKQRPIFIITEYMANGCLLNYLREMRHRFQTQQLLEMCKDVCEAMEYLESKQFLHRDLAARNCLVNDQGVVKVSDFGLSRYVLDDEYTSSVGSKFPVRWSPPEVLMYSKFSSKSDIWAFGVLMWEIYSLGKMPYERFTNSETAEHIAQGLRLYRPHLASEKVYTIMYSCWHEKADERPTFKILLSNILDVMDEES
Method: as §1, §2

Compound | IC50 [1] | IC50 [2]
C=CC(=O)N1CCC[C@@H](Nc2nc(Nc3cnoc3)nc3[nH]ncc23)C1 [Example 146, (R)-1-(3-((6-(isoxazol-4-ylamino)-1H-pyrazolo[3,4-d]pyrimidin-4-yl)amino)piperidin-1-yl)prop-2-en-1-one] | 7.4 nM | 1.4 nM
C=CC(=O)N1CCC[C@@H](N(C)c2nc(Nc3cnoc3)nc3[nH]ccc23)C1 [Example 102] | 13.2 nM | 146 nM
C=CC(=O)N1CCC[C@@H](Nc2nc(Nc3cnn(CCN4CCOCC4)c3)nc3[nH]ncc23)C1 [Example 72, (R)-1-(3-((6-((1-(2-morpholinoethyl)-1H-pyrazol-4-yl)amino)-1H-pyrazolo[3,4-d]pyrimidin-4-yl)amino)piperidin-1-yl)prop-2-en-1-one] | 2.2 nM | 1.1 nM
C=CC(=O)N1CCC[C@@H](Nc2nc(Nc3cnn(CC(=O)NC)c3)nc3[nH]ncc23)C1 [Example 35, (R)-2-(4-(4-(1-acryloylpiperidin-3-ylamino)-1H-pyrazolo[3,4-d]pyrimidin-6-ylamino)-1H-pyrazol-1-yl)-N-methylacetamide] | 5.2 nM | 2.1 nM
C=CC(=O)N1CCC[C@@H](N(C)c2nc(Nc3cnn(CC(F)F)c3)nc3[nH]ccc23)C1 [Example 103, (R)-1-(3-((2-((1-(2,2-difluoroethyl)-1H-pyrazol-4-yl)amino)-7H-pyrrolo[2,3-d]pyrimidin-4-yl)(methyl)amino)piperidin-1-yl)prop-2-en-1-one] | 1.3 nM | 21 nM
CCn1cc(Nc2nc(S[C@@H]3CCCN(C(=O)/C(C#N)=C/C4CC4)C3)c3c(Cl)n[nH]c3n2)cn1 [Example 181] | 30.2 nM | 2.2 nM
C=CC(=O)N1CCC[C@@H](Nc2nc(Nc3ccc(N(C)C)cc3)nc3[nH]ccc23)C1 [Example 9, (R)-1-(3-(2-(4-(dimethylamino)phenylamino)-7H-pyrrolo[2,3-d]pyrimidin-4-ylamino)piperidin-1-yl)prop-2-en-1-one] | 3.9 nM | 20.5 nM
CCn1cc(Nc2nc(N[C@@H]3CCCN(C(=O)/C(C#N)=C/C(C)C)C3)c3c(Cl)c[nH]c3n2)cn1 [Example 178, (R,E)-2-(3-((5-chloro-2-((1-ethyl-1H-pyrazol-4-yl)amino)-7H-pyrrolo[2,3-d]pyrimidin-4-yl)amino)piperidine-1-carbonyl)-4-methylpent-2-enenitrile] | 0.5 nM | 0.9 nM
C=CC(=O)N1CCC[C@@H](Nc2nc(Nc3cnn(CC)c3)nc3[nH]nc(C)c23)C1 [Example 185, (R)-1-(3-((6-((1-ethyl-1H-pyrazol-4-yl)amino)-3-methyl-1H-pyrazolo [3,4-d]pyrimidin-4-yl)amino)piperidin-1-yl)prop-2-en-1-one] | 15.1 nM | 2.1 nM
C=CC(=O)N1CCC[C@@H](Nc2nc(Nc3cnn(CCC)c3)nc3[nH]ncc23)C1 [Example 73, (R)-1-(3-((6-((1-propyl-1H-pyrazol-4-yl)amino)-1H-pyrazolo[3,4-d]pyrimidin-4-yl)amino)piperidin-1-yl)prop-2-en-1-one] | 4.4 nM | 1.1 nM
C=CC(=O)N1CC[C@@H](C)[C@@H](Nc2nc(Nc3cnn(C)c3)nc3[nH]nc(Cl)c23)C1 [Example 128] | 14.6 nM | 5.8 nM
C=CC(=O)N1CCC[C@@H](Nc2nc(Nc3cnn(CCN4CCOCC4)c3)nc3[nH]nc(Cl)c23)C1 [Example 54, (R)-1-(3-(3-chloro-6-(1-(2-morpholinoethyl)-1H-pyrazol-4-ylamino)-1H-pyrazolo [3,4-d]pyrimidin-4-ylamino)piperidin-1-yl)prop-2-en-1-one] | 0.7 nM | 1.8 nM
C=CC(=O)N1CCC[C@@H](Nc2nc(Nc3cnn(C4CCOCC4)c3)nc3[nH]nc(Cl)c23)C1 [Example 48, (R)-1-(3-(3-chloro-6-(1-(tetrahydro-2H-pyran-4-yl)-1H-pyrazol-4-ylamino)-1H-pyrazolo[3,4-d]pyrimidin-4-ylamino)piperidin-1-yl)prop-2-en-1-one] | 0.4 nM | 0.9 nM

Next, values leading:

IC50 [1] | IC50 [2] | Compound
0.7 nM | 2 nM | CCn1cc(Nc2nc(S[C@@H]3CCCN(C(=O)/C(C#N)=C/C(C)C)C3)c3cc[nH]c3n2)cn1 [Example 174, (R,E)-2-(3-((2-((1-ethyl-1H-pyrazol-4-yl)amino)-7H-pyrrolo[2,3-d]pyrimidin-4-yl)thio)piperidine-1-carbonyl)-4-methylpent-2-enenitrile]
0.2 nM | 1.6 nM | C=CC(=O)N1CCC[C@@H](Oc2nc(Nc3cnn(CC(F)F)c3)nc3[nH]cc(C#N)c23)C1 [Example 149, (R)-4-((1-acryloylpiperidin-3-yl)oxy)-2-((1-(2,2-difluoroethyl)-1H-pyrazol-4-yl)amino)-7H-pyrrolo[2,3-d]pyrimidine-5-carbonitrile]
9.9 nM | 6.7 nM | C=CC(=O)N1CCC[C@@H](Nc2nc(Nc3ccc(-n4nc(C)cc4C)cc3)nc3[nH]nc(Cl)c23)C1 [Example 43]
7.8 nM | 7.5 nM | C=CC(=O)N1CC[C@@H](C)[C@@H](Nc2nc(Nc3cnn(CC(F)(F)F)c3)nc3[nH]nc(Cl)c23)C1 [Example 120, 1-((3R,4R)-3-((3-chloro-6-((1-(2,2,2-trifluoroethyl)-1H-pyrazol-4-yl)amino)-1H-pyrazolo[3,4-d]pyrimidin-4-yl)amino)-4-methylpiperidin-1-yl)prop-2-en-1-one]
0.3 nM | 8.8 nM | C=CC(=O)N1CCC[C@@H](Nc2nc(Nc3cnn(CCN4CCOCC4)c3)nc3[nH]ccc23)C1 [Example 18, (R)-1-(3-(2-(1-(2-morpholinoethyl)-1H-pyrazol-4-ylamino)-7H-pyrrolo[2,3-d]pyrimidin-4-ylamino)piperidin-1-yl)prop-2-en-1-one]
0.3 nM | 2.7 nM | C=CC(=O)N1CCC[C@@H](Sc2nc(Nc3cnn(CC)c3)nc3[nH]ccc23)C1 [Example 104, (R)-1-(3-((2-((1-ethyl-1H-pyrazol-4-yl)amino)-7H-pyrrolo[2,3-d]pyrimidin-4-yl)thio)piperidin-1-yl)prop-2-en-1-one]
2.9 nM | 1.2 nM | C=CC(=O)N1CC[C@@H](C)[C@@H](Nc2nc(Nc3cnn(CC#N)c3)nc3[nH]nc(Cl)c23)C1 [Example 126, 2-(4-((4-(((3R,4R)-1-acryloyl-4-methylpiperidin-3-yl)amino)-3-chloro-1H-pyrazolo[3,4-d]pyrimidin-6-yl)amino)-1H-pyrazol-1-yl)acetonitrile]
17.7 nM | 1.8 nM | C=CC(=O)N1CC[C@@H](C)[C@@H](Nc2nc(Nc3cnn(CC#N)c3)nc3[nH]nc(SC)c23)C1 [Example 134, 2-(4-((4-(((3R,4R)-1-acryloyl-4-methylpiperidin-3-yl)amino)-3-(methylthio)-1H-pyrazolo[3,4-d]pyrimidin-6-yl)amino)-1H-pyrazol-1-yl)acetonitrile]
